Assay [1] has as its system S. aureus RN4220Bi^R. As to the kind of experiment: MIC against biphenomycin-resistant S. aureus strain RN4220Bi^R. The format is cell-based. The following applies: colony selected as strain RN4220Bi^R. Here is the method: The S. aureus strain RN4220Bi^R is isolated in vitro. […] Whereas about 1×10^7 cells grow on the antibiotic-free plate, about 100 colonies grow on the antibiotic-containing plate, corresponding to a resistance rate of 1×10^5. Some of the colonies grown on the antibiotic-containing plate are tested for the biphenomycin B MIC. One colony with a MIC of >50 μM is selected for further use, and the strain is referred to as RN4220Bi^R.

The target of assay [2] is S. aureus 133 Translation. As to the kind of experiment: S. aureus in vitro transcription-translation assay (firefly luciferase, S30 extract). The format is biochemical. The following applies: 50% inhibition of the translation of firefly luciferase. The text has this: In Vitro Transcription-Translation with S. aureus Extracts
Construction of an S. aureus luciferase Reporter Plasmid
In order to construct a reporter plasmid which can be used in an in vitro transcription-translation assay from S. aureus the plasmid pBESTluc (Promega Corporation, USA) is used. The E. coli tac promoter present in this plasmid in front of the firefly luciferase is replaced with the capA1 promoter with appropriate Shine-Dalgarno sequence from S. aureus. The primers CAPFor 5′-CGGCCAAGCTTACTC-[…] […]-3′ and CAPRev 5′-[…]-3′ are used for this. The primer CAPFor contains the capA1 promoter, the ribosome binding site and the 5′ region of the luciferase gene. After PCR using pBESTluc as template it is possible to isolate a PCR product which contains the firefly luciferase gene with the fused capA1 promoter. This is, after restriction with ClaI and HindIII, ligated into the vector pBESTluc which has likewise been digested with ClaI and HindIII. The resulting plasmid p1a can be replicated in E. coli and can be used as template in the S. aureus in vitro transcription-translation test.
Preparation of S30 Extracts from S. aureus
Six litres of BHI medium are inoculated with a 250 ml overnight culture of an S. aureus strain and allowed to grow at 37° C. until the OD600 nm is 2-4. The cells are harvested by centrifugation and washed in 500 ml of cold buffer A (10 mM Tris acetate, pH 8.0, 14 mM magnesium acetate, 1 mM DTT, 1 M KCl). After renewed centrifugation, the cells are washed in 250 ml of cold buffer A with 50 mM KCl, and the resulting pellets are frozen at −20° C. for 60 min. The pellets are thawed on ice in 30 to 60 min and taken up to a total volume of 99 ml in buffer B (10 mM Tris acetate, pH 8.0, 20 mM magnesium acetate, 1 mM DTT, 50 mM KCl). 1.5 ml portions of lysostaphin (0.8 mg/ml) in buffer B are introduced into 3 precooled centrifuge cups and mixed with 33 ml of the cell suspension each. The samples are incubated at 37° C., shaking occasionally, for 45 to 60 min, before 150 μl of a 0.5 M DTT solution are added. The lysed cells are centrifuged at 30 000×g and 4° C. for 30 min. The cell pellet is taken up in buffer B and then centrifuged again under the same conditions, and the collected supernatants are combined. The supernatants are centrifuged again under the same conditions, and 0.25 volumes of buffer C (670 mM Tris acetate, pH 8.0, 20 mM magnesium acetate, 7 mM Na3 phosphoenolpyruvate, 7 mM DTT, 5.5 mM ATP, 70 μM amino acids (complete from Promega), 75 μg of pyruvate kinase (Sigma, Germany))/ml are added to the upper ⅔ of the supernatant. The samples are incubated at 37° C. for 30 min. The supernatants are dialysed against 2 l of dialysis buffer (10 mM Tris acetate, pH 8.0, 14 mM magnesium acetate, 1 mM DTT, 60 mM potassium acetate) in a dialysis tube with a 3500 Da cut-off with one buffer change at 4° C. overnight. The dialysate is concentrated to a protein concentration of about 10 mg/ml by covering the dialysis tube with cold PEG 8000 powder (Sigma, Germany) at 4° C. The S30 extracts can be stored in aliquots at −70° C.
Determination of the IC50 in the S. aureus In Vitro Transcription-Translation Assay
The inhibition of protein biosynthesis of the compounds can be shown in an in vitro transcription-translation assay. The assay is based on the cell-free transcription and translation of firefly luciferase using the reporter plasmid p1a as template and cell-free S30 extracts obtained from S. aureus. The activity of the resulting luciferase can be detected by luminescence measurement.
The amount of S30 extract or plasmid p1a to be employed must be tested anew for each preparation in order to ensure an optimal concentration in the assay. 3 μl of the substance to be tested, dissolved in 5% DMSO, are provided in an MTP. Then […] of a suitably concentrated plasmid solution p1a are added. […]

SMILES strings stand for the structures.

One may read the MIC as the lowest concentration found to suppress growth. The IC50 is the concentration that gives 50% inhibition. For `NC[C@H](O)C[C@@H]1NC(=O)[C@@H](N)Cc2cc(ccc2O)-c2ccc(O)c(c2)C[C@@H](C(=O)O)NC1=O` [Biphenomycin B, biphenomycin B, reference compound], in assay [1], the MIC was greater than 50 µM. Moreover, in assay [2], the IC50 came to 1500 nM.

Source of the values: patent publication US20080300231A1, “Antibacterial amide macrocycles VI” (priority 2005, published 2008).
